ChEMBL document CHEMBL1212720, “Identification of the toxic trigger in mushroom poisoning” (Nat Chem Biol, 2009)

Legend:
[1] = tested on: Mus musculus; assay: Toxicity in po dosed ICR mouse assessed as decreased in mobility after 3 hrs; format: organism-based; conditions: in vivo
[2] = Toxicity in po dosed mouse; format: organism-based; conditions: in vivo
[3] = (§1) Toxicity in po dosed rat; format: organism-based; conditions: in vivo
[4] = tested on: Rattus norvegicus; assay: as §1; format: organism-based; conditions: in vivo
[5] = tested on: Mus musculus; assay: Induction of rhabdomyolysis in ICR mouse assessed as serum creatine […] level at 70 mg/kg, po after 4 hrs by spectrophotometry (reference value: 240 +/- 34 U/L); format: organism-based; design: dose 70 mg/kg, route oral; conditions: in vivo
[6] = Cytotoxicity against mouse DRG neuron at 100 ug/ml by MTT assay
[7] = tested on: Enterococcus; assay: Antibacterial activity against Enterococcus after 18 to 48 hrs by serial dilution method; format: functional
[8] = species: Mus musculus; assay: Cytotoxicity against mouse neuronal tumor cells at 100 ug/ml by MTT assay; format: functional, cell-based
[9] = tested on: Pseudomonas; assay: Antibacterial activity against Pseudomonas after 18 to 48 hrs by serial dilution method; format: functional
[10] = Antibacterial activity against Cryptococcus after 18 to 48 hrs by serial dilution method; format: functional
[11] = tested on: Corynebacterium; assay: Antibacterial activity against Corynebacterium after 18 to 48 hrs by serial dilution method; format: functional
[12] = tested on: Mus musculus; assay: Induction of rhabdomyolysis in ICR mouse assessed as serum creatine […] level at 5 mg/kg, po after 4 hrs by spectrophotometry (reference value: 240 +/- 34 U/L); format: organism-based; design: dose 5 mg/kg, route oral; conditions: in vivo
[13] = tested on: sarcoma; assay: Cytotoxicity against human synovial sarcoma cells at 100 ug/ml by MTT assay; format: functional, cell-based
[14] = species: Homo sapiens; assay: Cytotoxicity against human neuronal tumor cells at 100 ug/ml by MTT assay; format: functional, cell-based
[15] = tested on: Proteus; assay: Antibacterial activity against Proteus after 18 to 48 hrs by serial dilution method; format: functional
[16] = tested on: Salmonella; assay: Antibacterial activity against Salmonella after 18 to 48 hrs by serial dilution method; format: functional
[17] = tested on: Saccharomyces; assay: Antifungal activity against Saccharomyces after 18 to 48 hrs by serial dilution method; format: functional
[18] = tested on: Staphylococcus; assay: Antibacterial activity against Staphylococcus after 18 to 48 hrs by serial dilution method; format: functional
[19] = tested on: Serratia; assay: Antibacterial activity against Serratia after 18 to 48 hrs by serial dilution method; format: functional
[20] = Chemical stability of the compound at 20 degC assessed as half life; format: physicochemical
[21] = tested on: Bacillus; assay: Antibacterial activity against Bacillus after 18 to 48 hrs by serial dilution method; format: functional
[22] = tested on: Micrococcus; assay: Antibacterial activity against Micrococcus after 18 to 48 hrs by serial dilution method; format: functional
[23] = tested on: Klebsiella; assay: Antibacterial activity against Klebsiella after 18 to 48 hrs by serial dilution method; format: functional
[24] = tested on: Candida; assay: Antifungal activity against Candida after 18 to 48 hrs by serial dilution method; format: functional
[25] = Cytotoxicity against mouse hyphalamic cells at 100 ug/ml by MTT assay; format: cell-based
[26] = tested on: Mus musculus; assay: Toxicity in ip dosed ICR mouse assessed as decreased in mobility after 3 hrs; format: organism-based; conditions: in vivo
[27] = tested on: Shigella; assay: Antibacterial activity against Shigella after 18 to 48 hrs by serial dilution method; format: functional
[28] = tested on: Mycobacterium; assay: Antibacterial activity against Mycobacterium after 18 to 48 hrs by serial dilution method; format: functional
[29] = tested on: Escherichia; assay: Antibacterial activity against Escherichia after 18 to 48 hrs by serial dilution method; format: functional
[30] = species: Homo sapiens; assay: Cytotoxicity against human astrocytoma cells at 100 ug/ml by MTT assay; format: functional, cell-based

## CC1=C(C)C1C(=O)O
[1]
  LD100: > 250 mg/kg

## CCC(=O)O [PROPIONIC ACID]
[2]
  LD50: 5100 mg/kg

## CCCC(=O)O [BUTYRIC ACID]
[1]
  LD100: 5000 mg/kg
[3]
  LD50: 8790 mg/kg
[4]
  LDLO: 500 mg/kg

## CC1=CC1C(=O)O (centres undefined)
[1]
  LD100: 50 mg/kg

## C/C=C/C(=O)O [CROTONIC ACID]
[2]
  LD50: 400 mg/kg
[1]
  LD100: 2500 mg/kg

## C=C(C)C(=O)O [METHACRYLIC ACID]
[2]
  LD50: 1600 mg/kg

## C#CC(=O)O [PROPIOLIC ACID]
[2]
  LD50: 100 mg/kg

## Nc1ccc(N)cc1
[5]
  Activity: 397 U/L

## O=C(O)C1C=C1
[6]
  Activity: Non-toxic
[7]
  MIC: > 100 µg/mL
[8]
  Activity: Not toxic
[9]
  MIC: > 100 µg/mL
[10]
  MIC: > 100 µg/mL
[11]
  MIC: > 100 µg/mL
[12]
  Activity: 3441 U/L
[13]
  Activity: Not toxic
[14]
  Activity: Not toxic
[15]
  MIC: > 100 µg/mL
[16]
  MIC: > 100 µg/mL
[17]
  MIC: > 100 µg/mL
[18]
  MIC: > 100 µg/mL
[19]
  MIC: > 100 µg/mL
[20]
  half-life: 20 h
[21]
  MIC: > 100 µg/mL
[22]
  MIC: > 100 µg/mL
[23]
  MIC: > 100 µg/mL
[1]
  LD100: 2.5 mg/kg
[24]
  MIC: > 100 µg/mL
[25]
  Activity: Non-toxic
[26]
  LD100: 2.5 mg/kg
[27]
  MIC: > 100 µg/mL
[28]
  MIC: > 100 µg/mL
[29]
  MIC: > 100 µg/mL
[30]
  Activity: Not toxic

## CC(=O)O [ACETIC ACID]
[2]
  LD50: 4960 mg/kg
[1]
  LD100: 2500 mg/kg
